Two molecules from patent US20090042849A1, “Phosphorylation of 5-lipoxygenase at ser523 and uses thereof” (priority 2006, published 2009) can be followed below.

Assay [1] relates to 5LO (Ser523 phosphorylated 5LO). As to the kind of experiment: immunoblotting of total 5LO and P-5LO in rat myocardium (whole cell homogenate). Format: in vivo. The note with it: for myocardial levels of Ser523 phosphorylated 5LO (P-5LO) / myocardial total 5LO levels: whole cell homogenate, PIO or ATV 10 mg/kg/d 3 days, H-89 20 mg/kg i.p. On the procedure: Rats received: 1) PIO (10 mg/kg/d); 2) ATV (10 mg/kg/d); 3) PIO (10 mg/kg/d)+H89 (20 mg/kg); 4) ATV (10 mg/kg/d)+H89 (20 mg/kg); 5) H89 (20 mg/kg) or 6) water alone (control). PIO and ATV were suspended in water and administered by gastric gavage once daily for 3 days; H-89 was dissolved in DMSO (final concentration 5% v/v) and injected intraperitoneally on the third day. Rats in groups 5 and 6 received water by gastric gavage once daily for 3 days. Rats in groups 1, 2 and 6 received intraperitoneal inkection of DMSO 5%. Sixteen hours after the injection, rats were euthanized and the hearts explanted for further analyses. In another experiment, rats received 3-day pretreatment with: 1) water (sham); 2) PIO (10 mg/kg/d); 3) ATV (10 mg/kg/d); 4) PIO (10 mg/kg/d)+ATV (10 mg/kg/d); or 5) LPS (10 mg/kg).
PIO and ATV were administered by oral gavage once daily as above; LPS was administered intravenously. In addition, rats in groups 1-4 received intravenous saline on the […], whereas rats in group 1 and 5 received water by gastric gavage once daily for 3 days and the LPS injection on the third day. Sixteen hours after the injection, rats were euthanized and the hearts explanted for further analyses.
The hearts were rapidly explanted, rinsed in cold PBS (pH 7.4), containing 0.16 mg/ml heparin to remove red blood cells and clots, frozen in liquid nitrogen and stored at −70° C. Myocardial samples from the anterior left ventricular wall were homogenized in RIPA lysis buffer (Santa Cruz Biotechnology, Santa Cruz, Calif.) and centrifuged at 14,000 rpm for 15 min at 4° C. The supernatant was collected and the total protein concentration was determined using the Lowry protein assay. […] The protein samples with loading buffer were run in 4-20% Tri-HCl Ready Gel at a 100V for 2 h until the desired molecular weight bands were separated. After electrophoresis, the gel was equilibrated in transfer buffer (25 mM Tris, 193 mM glycine, 0.1% SDS and 10% methanol) and the proteins were transferred to nitrocellulose membrane. The protein signals were quantified by an image-scanning-densitometer and the strength of each protein signal was normalized to the corresponding b-actin stain signal. Data are expressed as a ratio between the protein and the corresponding b-actin signal density.
(Immunoblotting shows a protein as a band on a membrane.)

In the next assay the test system is 5LO. Description: immunoblotting of 5LO in cytosolic, membranous and nuclear fractions of myocardial cells. It counts as in vivo. The note with it: rat myocardium. On the procedure: Rats received: 1) […] (20 mg/kg) or 6) water alone (control). PIO and ATV were suspended in water and administered by gastric gavage once daily for 3 days; H-89 was dissolved in DMSO (final concentration 5% v/v) and injected intraperitoneally on the third day. Rats in groups 5 and 6 received water by gastric gavage once daily for 3 days. Rats in groups 1, 2 and 6 received intraperitoneal inkection of DMSO 5%. Sixteen hours after the injection, rats were euthanized and the hearts explanted for further analyses. In another experiment, rats received 3-day pretreatment with: 1) […]); or 5) LPS (10 mg/kg). Myocardial samples (0.25 g) were homogenized, mixed with Buffer A Mix [Hepes (pH 7.9) 10 mM, KCl 10 mM, EDTA 10 mM, DTT 100 mM, protease inhibitor cocktail, and IGEPAL 10%, (Sigma, St Lois, Mo.)], homogenized again and incubated for 15 min on ice, and centrifuged at 850×g for 10 min at 4° C. The supernatant was discharged, Buffer A Mix was added again and the samples incubated for an additional 15 min on ice, and centrifuged at 15,000×g for 3 min at 40 C. The supernatant contains the cytosolic fraction was collected. The pellet was resuspended in 150 μl of Buffer B Mix [Hepes (pH 7.9) 20 mM, NaCl 0.4M, EDTA 1 mM, glycerol 10%, protease inhibitor cocktail, and IGEPAL 10%], the tubes were shaked on ice at 200 rpm for 2 h, centrifuged at 15,000×g for 5 min at 4° C., and supernatants were collected as the nuclear fraction. […] The hearts were rapidly explanted, rinsed in cold PBS (pH 7.4), containing 0.16 mg/ml heparin to remove red blood cells and clots, frozen in liquid nitrogen and stored at -70° C. Myocardial samples from the anterior left ventricular wall were homogenized in RIPA lysis buffer (Santa Cruz Biotechnology, Santa Cruz, Calif.) and centrifuged at 14,000 rpm for 15 min at 4° C. The supernatant was collected and the total protein concentration was determined using the Lowry protein assay. […] The protein samples with loading buffer were run in 4-20% Tri-HCl Ready Gel at a 100V for 2 h until the desired molecular weight bands were separated. After electrophoresis, the gel was equilibrated in transfer buffer (25 mM Tris, 193 mM glycine, 0.1% SDS and 10% methanol) and the proteins were transferred to nitrocellulose membrane. The protein signals were quantified by an image-scanning-densitometer and the strength of each protein signal was normalized to the corresponding b-actin stain signal. Data are expressed as a ratio between the protein and the corresponding b-actin signal density.

“Also recorded” adds a separate entry of the source.

`CC(C)c1c(C(=O)Nc2ccccc2)c(-c2ccccc2)c(-c2ccc(F)cc2)n1CCC(O)CC(O)CC(=O)O` (stereo not shown) [ATV, 7-[2-(4-fluorophenyl)-5-(1-methylethyl)-3-phenyl-4-(phenylcarbamoyl)-1H-pyrrol-1-yl]-3,5-dihydroxy-heptanoic acid]: the “5LO phosphorylation, PIO and ATV compared with LPS” value in assay [1] (PIO, ATV 10 mg/kg/d, LPS 10 mg/kg i.v.) is on record as “significantly greater increase”. Moreover, in assay [1], the “myocardial levels of Ser523 phosphorylated 5LO (P-5LO)” value is “augment; also recorded: increased” and the “myocardial total 5LO levels” value is “without detectable change; also recorded: did not affect”. Moreover, in the assay with 5LO, the “5LO levels in the cytosolic fraction” value is on record as “small, yet significant increase” and the “5LO levels in the membranous fraction” value was “no detectable effect”.
With `O=S(=O)(NCCNC/C=C/c1ccc(Br)cc1)c1cccc2cnccc12` [H-89], the “effect on the increase in P-5LO by PIO and ATV” value in assay [1] (H-89 20 mg/kg i.p. with PIO or ATV 10 mg/kg/d) is given as “completely blocked”. Besides, in assay [1], the “myocardial levels of Ser523 phosphorylated 5LO (P-5LO)” value is recorded as “did not affect” and the “myocardial total 5LO levels” value was “did not affect”. Moreover, in the assay with 5LO, the “5LO levels in the cytosolic fraction” value is reported as “no significant effect” and the “5LO levels in the membranous fraction” value is listed as “no significant effect”.
